Measurements published in patent US20100286028A1, “USE OF A PEPTIDE AS A THERAPEUTIC AGENT” (priority 2007, published 2010).
No end group written: not given here.

Assays:
HIV-1IIIB = assay: HIV-1 antiviral assay in CEM-SS cells; settings: peptides 10 micrograms per ml; CEM-SS cells plus HIV-1IIIB; MTS readout 6 days post-infection
HCMV strain AD169 = assay: HCMV plaque formation assay in MRC-5 cells; settings: peptides 10 micrograms per ml, 7-10 days
[1] = tested on: hepatitis B virus (HBV) ayw strain; assay: HBV experimental assay system (HepG2-2.2.15, TaqMan PCR of secreted HBV DNA); format: cell-based; settings: 10 micrograms per ml, six days, HBV DNA by TaqMan PCR, combination 0.95 mole peptide 1 and 1.05 mole peptide 2
[2] = tested on: Primary Human endothelial cells (HUVEC); assay: Endothelial cell migration assay; format: cell-based; settings: 10 micrograms per ml, 22 hours, combination peptide 1:peptide 2 1.10 mole:0.90 mole
Streptococcus pneumoniae = Streptococcus pneumoniae assay; format: cell-based; settings: 10 micrograms per ml; 5x10^5 CFU/mL; read visually; combination 0.95 mole peptide 1 and 1.05 mole peptide 2 and all other molar ratios from 1:100 to 100:1
murine spleen cells = assay: Th1/Th2 cytokine profiling assay; format: cell-based, Balb/c mice; settings: 10 micrograms per ml, Ovalbumin-restimulated spleen cells, 72 hours
Source text: The Balb/c mice (originated in 1923, it is a popular strain and is used in many different research disciplines. Also classified as an inbred from the production of 20 or more successive brother-sister matings, the Balb/c mouse is albino and small in size) were immunized on Days 1, 15, and 29 with Ovalbumin (Ovalbumin is the main protein found in egg white, commonly used to stimulate an immunological reaction in test animals) in PBS (5 micrograms/injection). On day 50, spleens of the mice were harvested (3 weeks after last boost with Ovalbumin). […] Thereafter, additional Ovalbumin was added to the cells at 10 micrograms/ml for in vitro restimulation of the cells. 72 hours later, cell supernatants were harvested and assayed using the Becton Dickinson Mouse Th1/Th2 Cytokine CBA Kit. This kit can be used to measure Interleukin-2 (IL-2), Interleukin-4 (IL-4), Interleukin-5 (IL-5), Interferon-γ (IFN-γ), and Tumor Necrosis Factor-a (TNF-a) protein levels in a single sample.

HUVEC = assay: Endothelial tube formation assay; format: cell-based, human; settings: 10 micrograms per ml, 20 hours, average tubule length, combination peptide 1:peptide 2 1.10 mole:0.90 mole
Source text: Positive control was vehicle only.

[3] = combination 0.95 mole peptide 1 and 1.05 mole peptide 2

Molecule	inhibition of HIV-1 activity on tested T-cells (HIV-1IIIB)	inhibition of HCMV plaque formation as compared to the virus control experiment (HCMV strain AD169)	inhibition of HBV replication as compared to the virus control infection [1] [%]	inhibition of the migration of human endothelial cells [2] [%]	inhibition of the growth of Streptococcus pneumoniae (Streptococcus pneumoniae) [%]	production of IL-4 in murine spleen cells, suppressed by (murine spleen cells) [%]	change of the production of IL-5 in murine spleen cells (murine spleen cells; [3])	production of IFN-γ in murine spleen cells, induced by (murine spleen cells; [3])	production of IL-2 in murine spleen cells, induced by (murine spleen cells; [3])	production of TNF-alpha in murine spleen cells, induced by (murine spleen cells; [3]) [%]	increase of the tube formation of human endothelial cells (HUVEC) [%]	production of IL-4 in murine spleen cells, induced by (murine spleen cells; [3]) [%]
Cc1cn([C@H]2C[C@H](N=[N+]=[N-])[C@@H](CO)O2)c(=O)[nH]c1=O [AZT]	expected levels of antiviral activity	–	–	–	–	–	–	–	–	–	–	–
Nc1nc(O)c2ncn(COC(CO)CO)c2n1 [Ganciclovir, reference compound]	–	expected levels of antiviral activity	–	–	–	–	–	–	–	–	–	–
CC(C)(C)NC(=O)[C@@H]1CN(Cc2cccnc2)CCN1C[C@@H](O)C[C@@H](Cc1ccccc1)C(=O)N[C@H]1c2ccccc2C[C@H]1O [indinavir]	expected levels of antiviral activity	–	–	–	–	–	–	–	–	–	–	–
Cys-Tyr-Phe-Gln-Asn-Cys-Pro-Arg-Gly-NH2 (CYFQNCPRG-NH2; ends and bridges not checked) [Peptide 2]	–	did not inhibit	26.3	5	100	59.6	did not significantly change	did not significantly change	did not significantly change	24.9	4	–
PALPEDGGSGAFPPGHFKDPKRLY [Peptide 1]	–	did not inhibit	24.3	17	100	–	did not significantly change	30.3%	77.4%	30.0	2	123.9
